From article PMC8854719, “Phase 1A/1B dose-escalation and -expansion study to evaluate the safety, pharmacokinetics, food effects and antitumor activity of pamiparib in advanced solid tumours” (British Journal of Cancer, 2021)

System: advanced solid tumours
Test: Tumour response and PFS per RECIST v1.1, overall efficacy-evaluable population
Type: in vivo, human
Details: for Best overall response: Not evaluable / Best overall response: Partial response / Best overall response: Progressive disease / Best overall response: Stable disease / Clinical benefit rate / Disease control rate / Objective response rate / Best overall response: Complete response / Best overall response: Not assessed: dose escalation
Method: Pamiparib in plasma was measured using a validated liquid chromatography-tandem–mass spectrometry assay with a lower limit of quantification of 1.0 ng/mL. The collection schedule for blood samples used to assess the PK profile is presented in the Supplemental Appendix. Summary PK parameters, including area under the concentration-time curve from time 0 to 9 h (AUC0-9) or infinity (AUC0-inf), maximal plasma concentration (Cmax) and time to maximal plasma concentration (Tmax), were estimated. The pharmacodynamic (PD) activity of pamiparib was explored through the evaluation of poly(ADP-ribose [PAR]) formation in peripheral blood mononuclear cells (PBMCs) after pamiparib administration. The schedule for blood sample collection (PK and PBMCs) and additional assessment information for PAR levels in PBMCs and pharmacodynamic activity is presented in the Supplemental Appendix. Antitumor activity was assessed by radiographic imaging (computed tomography or magnetic resonance imaging) during screening, within 28 days of first pamiparib dose, every 6 weeks in the first 12 months and every 9 weeks thereafter.
Tumour response was evaluated by RECIST v1.1. For patients with ovarian cancer, tumour response was assessed per RECIST v1.1 and by Gynecologic Cancer Intergroup (GCIG) CA-125 criteria. Tumour response for patients with prostate cancer was assessed by Prostate Cancer Clinical Trials Working Group 2 (PCWG2) criteria. Objective response rate (ORR) was defined as the proportion of patients achieving a confirmed complete response (CR) or partial response (PR) on study treatment. Blood tumour antigens (e.g., carcinoembryonic antigen for colorectal cancer, CA-125 for ovarian cancer and prostate-specific antigen [PSA] for mCRPC) were assessed during screening, every 6 weeks after the first pamiparib dose in the first 12 months, and every 9 weeks thereafter.
The safety population comprised all patients in the dose-escalation and dose-expansion phases who received at least one dose of pamiparib (Supplementary Table S2). Patients in the safety analysis set for whom valid pamiparib PK parameters were estimated and for whom evaluable PD results were available represented the PK population and the PD population, respectively. The efficacy-evaluable population included patients in the safety analysis set who had at least one evaluable postbaseline tumour assessment or those who discontinued due to clinical disease progression or early death before tumour assessment could be performed. The EOC efficacy-evaluable population was a subset of the overall efficacy-evaluable population that included patients with EOC from both the dose-escalation and dose-expansion phases. Patients in the dose-expansion phase without measurable disease at baseline per RECIST v1.1 were excluded from the efficacy-evaluable population.
Descriptive statistics were used to summarise all study data (see Supplemental Appendix). Progression-free survival (PFS) and event-free rates were estimated using the Kaplan–Meier method along with the corresponding 95% CI. Pharmacokinetic parameters were derived using standard non-compartmental methods with Phoenix WinNonlin Version 6.4 or higher (Pharsight Corp., Mountain View, California).

[1] = overall efficacy-evaluable population (n=95)

SMILES: C[C@]12CCCN1CC1=NNC(=O)c3cc(F)cc4[nH]c2c1c34 [pamiparib]
- Best overall response: Not evaluable (10 mg BID (n=3)): 0 (0.0) n (%)
- Best overall response: Partial response (10 mg BID (n=3)): 0 (0.0) n (%)
- Best overall response: Progressive disease (10 mg BID (n=3)): 1 (33.3) n (%)
- Best overall response: Stable disease (10 mg BID (n=3)): 2 (66.7) n (%)
- Clinical benefit rate (10 mg BID (n=3)): 0.0 (0.00-70.76) % (95% CI)
- Disease control rate (10 mg BID (n=3)): 66.7 (9.43-99.16) % (95% CI)
- Objective response rate (10 mg BID (n=3)): 0.0 (0.00-70.76) % (95% CI)
- Best overall response: Complete response (20 mg BID (n=3)): 1 (33.3) n (%)
- Best overall response: Not assessed (20 mg BID (n=3)): 0 (0.0) n (%)
- Best overall response: Not evaluable (20 mg BID (n=3)): 0 (0.0) n (%)
- Best overall response: Partial response (20 mg BID (n=3)): 1 (33.3) n (%)
- Best overall response: Progressive disease (20 mg BID (n=3)): 1 (33.3) n (%)
- Best overall response: Stable disease (20 mg BID (n=3)): 0 (0.0) n (%)
- Clinical benefit rate (20 mg BID (n=3)): 66.7 (9.43-99.16) % (95% CI)
- Disease control rate (20 mg BID (n=3)): 66.7 (9.43-99.16) % (95% CI)
- Objective response rate (20 mg BID (n=3)): 66.7 (9.43-99.16) % (95% CI)
- Best overall response: Complete response (40 mg BID (n=6)): 0 (0.0) n (%)
- Best overall response: Not assessed (40 mg BID (n=6)): 0 (0.0) n (%)
- Best overall response: Not evaluable (40 mg BID (n=6)): 0 (0.0) n (%)
- Best overall response: Partial response (40 mg BID (n=6)): 2 (33.3) n (%)
- Best overall response: Progressive disease (40 mg BID (n=6)): 0 (0.0) n (%)
- Best overall response: Stable disease (40 mg BID (n=6)): 4 (66.7) n (%)
- Clinical benefit rate (40 mg BID (n=6)): 33.3 (4.33-77.72) % (95% CI)
- Disease control rate (40 mg BID (n=6)): 100.0 (54.07-100.00) % (95% CI)
- Objective response rate (40 mg BID (n=6)): 33.3 (4.33-77.72) % (95% CI)
- Best overall response: Complete response (60 mg BID (n=11)): 1 (9.1) n (%)
- Best overall response: Not assessed (60 mg BID (n=11)): 2 (18.2) n (%)
- Best overall response: Not evaluable (60 mg BID (n=11)): 0 (0.0) n (%)
- Best overall response: Partial response (60 mg BID (n=11)): 0 (0.0) n (%)
- Best overall response: Progressive disease (60 mg BID (n=11)): 3 (27.3) n (%)
- Best overall response: Stable disease (60 mg BID (n=11)): 5 (45.5) n (%)
- Clinical benefit rate (60 mg BID (n=11)): 18.2 (2.28-51.78) % (95% CI)
- Disease control rate (60 mg BID (n=11)): 54.5 (23.38-83.25) % (95% CI)
- Objective response rate (60 mg BID (n=11)): 9.1 (0.23-41.28) % (95% CI)
- Best overall response: Complete response (80 mg BID (n=9)): 1 (11.1) n (%)
- Best overall response: Not assessed (80 mg BID (n=9)): 1 (11.1) n (%)
- Best overall response: Not evaluable (80 mg BID (n=9)): 0 (0.0) n (%)
- Best overall response: Partial response (80 mg BID (n=9)): 1 (11.1) n (%)
- Best overall response: Progressive disease (80 mg BID (n=9)): 1 (11.1) n (%)
- Best overall response: Stable disease (80 mg BID (n=9)): 5 (55.6) n (%)
- Clinical benefit rate (80 mg BID (n=9)): 44.4 (13.70-78.80) % (95% CI)
- Disease control rate (80 mg BID (n=9)): 77.8 (39.99-97.19) % (95% CI)
- Objective response rate (80 mg BID (n=9)): 22.2 (2.81-60.01) % (95% CI)
- Best overall response: Complete response (120 mg BID (n=5)): 0 (0.0) n (%)
- Best overall response: Not assessed (120 mg BID (n=5)): 1 (20.0) n (%)
- Best overall response: Not evaluable (120 mg BID (n=5)): 1 (20.0) n (%)
- Best overall response: Partial response (120 mg BID (n=5)): 1 (20.0) n (%)
- Best overall response: Progressive disease (120 mg BID (n=5)): 1 (20.0) n (%)
- Best overall response: Stable disease (120 mg BID (n=5)): 1 (20.0) n (%)
- Clinical benefit rate (120 mg BID (n=5)): 20.0 (0.51-71.64) % (95% CI)
- Disease control rate (120 mg BID (n=5)): 40.0 (5.27-85.34) % (95% CI)
- Objective response rate (120 mg BID (n=5)): 20.0 (0.51-71.64) % (95% CI)
- Best overall response: Complete response (Total BID (N=44)): 3 (6.8) n (%)
- Best overall response: Not assessed (Total BID (N=44)): 7 (15.9) n (%)
- Best overall response: Not evaluable (Total BID (N=44)): 1 (2.3) n (%)
- Best overall response: Partial response (Total BID (N=44)): 7 (15.9) n (%)
- Best overall response: Progressive disease (Total BID (N=44)): 8 (18.2) n (%)
- Best overall response: Stable disease (Total BID (N=44)): 18 (40.9) n (%)
- Clinical benefit rate (Total BID (N=44)): 29.5 (16.76-45.20) % (95% CI)
- Disease control rate (Total BID (N=44)): 63.6 (47.77-77.59) % (95% CI)
- Objective response rate (Total BID (N=44)): 22.7 (11.47-37.84) % (95% CI)
- Patients who died (efficacy-evaluable patients (N 95), n = 10): 10.5%
- Patients who progressed (efficacy-evaluable patients (N 95), n = 50): 52.6%
- Patients who died or progressed (efficacy-evaluable patients, 60/95): 63.2%
- Confirmed complete responses [1]: 4.2%
- Confirmed partial responses [1]: 20%
- Confirmed ORR (overall efficacy-evaluable population (n=95), BID and QD): 24.2%
